The values that follow come from patent US20260232699A1, “COMPOSITIONS OF A CANNABINOID AND A KINASE INHIBITOR FOR THE TREATMENT OF CANCER” (SINOVEDA CANADA INC., priority 2023, published 2026).

Read-outs that look alike come from different tables or passages of the source.

The test relates to HepG2 cells. Nature of the test: HepG2 cell proliferation assay (XTT). Type of test: cell-based, human. As to conditions: Homo sapiens. The method, then:
HepG2 cells were obtained from the American Type Culture Collection (ATCC). Normal hepatocyte pool of cells was acquired from Xenotech. Cryopreserved cells in DMEM containing 5% DMSO were thawed and diluted 10-fold in phenol red free DMEM media containing 10% fetal bovine serum, 100 μg/ml penicillin/streptomycin, supplemented with Glutamax™ and sodium pyruvate. Subsequently, cells were centrifuged at 20 g for 10 minutes. The cells were resuspended in the same media with added Revitacell® to a concentration of […]. Ninety-six well cell culture treated flat bottom plates were seeded with 7.5×10^3 cells in 100 μl and incubated at 37° C., 7.5% CO2, >95% relative humidity for 18 hours to allow cellular adhesion after which media was replaced with like media (DMEM, IMDM, Williams E) containing 1 to 20% FBS and various test compounds (10 μg/ml to 100 ng/ml). After 48 hours (2 doublings of cells), sodium; 2-(2-methoxy-4-nitro-5-sulfonatophenyl)-3-(2-methoxy-4-nitro-5-sulfophenyl)-N-phenyltetrazol-3-ium-5-carboximidate (XTT) (300 μg/ml) was added, and cells incubated for 2 hours. Formazan production was measured at 450 nm on a Varioskan lux spectrophotometer. Non-specific absorption was measured at 660 nm and subtracted from the reference measurement at 450 nm. Experiments were performed in triplicates (n=3). […]
The objectives of this example are to, first, establish the procedure of a two-component interaction study; and second, establish a method of analysis to identify potential interactions among the two components/compounds. […] Following 48 hours of incubation, the IC50 values of various mixtures were obtained and compared with the pure compound's IC50 values and predicted/calculated IC50 values for the various mixtures. […]
Samples from the serial dilutions were analyzed by LC-MS/MS to orthogonally confirm concentrations. […]
To assess potential interactions, the IC50 values for individual cannabinoids in the control lanes were calculated and used to predict and IC50 value for the summation of their individual components.
Background: Formazan colour is commonly taken as a measure of viable cells.

With `CNC(=O)c1cc(Oc2ccc(NC(=O)Nc3ccc(Cl)c(C(F)(F)F)c3)cc2)ccn1` [Sorafenib], the IC50 runs as follows: (IMDM media with 20% FBS and 1% ethanol, read-out: predetermined IC50 concentrations) 12 µM; (XTT, DMEM media with 20% FBS, 48 hour treatment, read-out: IC50 HepG2) 9.8 µg/mL.
